Assay results as given in PubChem BioAssay AID2060883 (Molecular Pharmacology Branch, DTP, NCI, 2025).

Tested on: 843782-103-R-J1-PDC complex spheroid viability
Assay: Anticancer human tumor 843782-103-R-J1-PDC patient-derived lung adenocarcinoma cell line growth inhibition [RAS]
Conditions: for IC50: curve of first compound; for viability, T/C: stronger effect = lower value
Method in brief: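 Tumour cells grown as complex spheroids with HUVEC endothelial cells and mesenchymal stem cells, treated with RAS pathway inhibitor combinations. Each agent spans half-log steps from near clinical Cmax, or 10 microM where Cmax is unknown.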

[1] = second compound 0.000949 µM, first compound 0.0316 µM
[2] = second compound 0.000949 µM, first compound 0.1 µM
[3] = second compound 0.000949 µM, first compound 0.316 µM
[4] = second compound 0.000949 µM, first compound 1 µM
[5] = second compound 0.003 µM, first compound 0.0316 µM
[6] = second compound 0.003 µM, first compound 0.1 µM
[7] = second compound 0.003 µM, first compound 0.316 µM
[8] = second compound 0.003 µM, first compound 1 µM
[9] = second compound 0.00949 µM, first compound 0.0316 µM
[10] = second compound 0.00949 µM, first compound 0.1 µM
[11] = second compound 0.00949 µM, first compound 0.316 µM
[12] = second compound 0.00949 µM, first compound 1 µM
[13] = second compound 0.03 µM, first compound 0.0316 µM
[14] = second compound 0.03 µM, first compound 0.1 µM
[15] = second compound 0.03 µM, first compound 0.316 µM
[16] = second compound 0.03 µM, first compound 1 µM
[17] = second compound 0.0949 µM, first compound 0.0316 µM
[18] = second compound 0.0949 µM, first compound 0.1 µM
[19] = second compound 0.0949 µM, first compound 0.316 µM
[20] = second compound 0.0949 µM, first compound 1 µM
[21] = second compound 0.3 µM, first compound 0.0316 µM
[22] = second compound 0.3 µM, first compound 0.1 µM
[23] = second compound 0.3 µM, first compound 0.316 µM
[24] = second compound 0.3 µM, first compound 1 µM
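Also: viability read after seven days of compound exposure.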

With `CC(=O)OC12COC1CC(O)C1(C)C(=O)C(O)C3=C(C)C(OC(=O)C(O)C(NC(=O)OC(C)(C)C)c4ccccc4)CC(O)(C(OC(=O)c4ccccc4)C21)C3(C)C` (stereo unspecified) + C#Cc1c(F)ccc2cc(O)cc(-c3ncc4c(N5CC6CCC(C5)N6)nc(OCC56CCCN5CC(F)C6)nc4c3F)c12 the IC50 (second compound 0.0316 µM) was under 31.6 nM, the IC50 (second compound 0.1 µM) was under 31.6 nM and the IC50 (second compound 0.316 µM) was under 31.6 nM. The IC50 (second compound 1 µM) was under 31.6 nM, the IC50 (second compound 3.16 µM) was under 31.6 nM and the IC50 (second compound 10 µM) was under 31.6 nM. It also gave a viability, T/C (second compound 0.0316 µM, first compound 0.0316 µM) of 4.52%, a viability, T/C (second compound 0.0316 µM, first compound 0.1 µM) of 3.3% and a viability, T/C (second compound 0.0316 µM, first compound 0.316 µM) of 5.75%. It also gave a viability, T/C (second compound 0.0316 µM, first compound 1 µM) of 5.44%, a viability, T/C (second compound 0.0316 µM, first compound 3.16 µM) of 6.53% and a viability, T/C (second compound 0.0316 µM, first compound 10 µM) of 7.38%. For the same compound, the viability, T/C (second compound 0.1 µM, first compound 0.0316 µM) was 5.17%, the viability, T/C (second compound 0.1 µM, first compound 0.1 µM) was 4.75% and the viability, T/C (second compound 0.1 µM, first compound 0.316 µM) was 5.48%. The viability, T/C (second compound 0.1 µM, first compound 1 µM) was 5.75%, the viability, T/C (second compound 0.1 µM, first compound 3.16 µM) was 5.28% and the viability, T/C (second compound 0.1 µM, first compound 10 µM) was 6.18%. The viability, T/C (second compound 0.316 µM, first compound 0.0316 µM) was 5.18%, the viability, T/C (second compound 0.316 µM, first compound 0.1 µM) was 5.95% and the viability, T/C (second compound 0.316 µM, first compound 0.316 µM) was 5.15%. For the same compound, the viability, T/C (second compound 0.316 µM, first compound 1 µM) was 5.27%, the viability, T/C (second compound 0.316 µM, first compound 3.16 µM) was 4.44% and the viability, T/C (second compound 0.316 µM, first compound 10 µM) was 8.29%. For the same compound, the viability, T/C (second compound 1 µM, first compound 0.0316 µM) was 4.8%, the viability, T/C (second compound 1 µM, first compound 0.1 µM) was 6.07% and the viability, T/C (second compound 1 µM, first compound 0.316 µM) was 7.89%. It also gave a viability, T/C (second compound 1 µM, first compound 1 µM) of 6.08%, a viability, T/C (second compound 1 µM, first compound 3.16 µM) of 5.69% and a viability, T/C (second compound 1 µM, first compound 10 µM) of 8.43%. The viability, T/C (second compound 3.16 µM, first compound 0.0316 µM) was 5.43%, the viability, T/C (second compound 3.16 µM, first compound 0.1 µM) was 5.83% and the viability, T/C (second compound 3.16 µM, first compound 0.316 µM) was 5.33%. For the same compound, the viability, T/C (second compound 3.16 µM, first compound 1 µM) was 4.35%, the viability, T/C (second compound 3.16 µM, first compound 3.16 µM) was 6.83% and the viability, T/C (second compound 3.16 µM, first compound 10 µM) was 8.8%. It also gave a viability, T/C (second compound 10 µM, first compound 0.0316 µM) of 5.06%, a viability, T/C (second compound 10 µM, first compound 0.1 µM) of 3.91% and a viability, T/C (second compound 10 µM, first compound 0.316 µM) of 6.9%. The viability, T/C (second compound 10 µM, first compound 1 µM) was 4.34%, the viability, T/C (second compound 10 µM, first compound 3.16 µM) was 3.89% and the viability, T/C (second compound 10 µM, first compound 10 µM) was 7.89%.
Work on `C=CC(=O)Nc1cc(Nc2nccc(-c3cn(C)c4ccccc34)n2)c(OC)cc1N(C)CCN(C)C` + CCn1c(-c2cccnc2C(C)OC)c2c3cc(ccc31)N1CCOC(CC(NC(=O)C(C(C)C)N(C)C(=O)C3(F)CCN(C(=O)C#CC(C)(C)N(C)C)CC3)C(=O)N3CCCC(N3)C(=O)OCC(C)(C)C2)C1 yielded an IC50 (second compound 0.000949 µM) of 78.2 nM, an IC50 (second compound 0.003 µM) of 194 nM and an IC50 (second compound 0.00949 µM) of 76.4 nM. For the same compound, the IC50 (second compound 0.03 µM) was 167 nM, the IC50 (second compound 0.0949 µM) was 92.2 nM and the IC50 (second compound 0.3 µM) was 110 nM. The viability, T/C (second compound 0.000949 µM, first compound 0.00316 µM) was 75.9%, the viability, T/C (second compound 0.000949 µM, first compound 0.01 µM) was 60.9% and the viability, T/C [1] was 68.2%. It also gave a viability, T/C [2] of 45.1%, a viability, T/C [3] of 33.5% and a viability, T/C [4] of 31.5%. For the same compound, the viability, T/C (second compound 0.003 µM, first compound 0.00316 µM) was 68.7%, the viability, T/C (second compound 0.003 µM, first compound 0.01 µM) was 57.3% and the viability, T/C [5] was 66.3%. It also gave a viability, T/C [6] of 64.3%, a viability, T/C [7] of 39.6% and a viability, T/C [8] of 30.9%. The viability, T/C (second compound 0.00949 µM, first compound 0.00316 µM) was 67.5%, the viability, T/C (second compound 0.00949 µM, first compound 0.01 µM) was 69.1% and the viability, T/C [9] was 73%. The viability, T/C [10] was 43.9%, the viability, T/C [11] was 40.8% and the viability, T/C [12] was 26.8%. For the same compound, the viability, T/C (second compound 0.03 µM, first compound 0.00316 µM) was 65.9%, the viability, T/C (second compound 0.03 µM, first compound 0.01 µM) was 73.6% and the viability, T/C [13] was 58.9%. The viability, T/C [14] was 55.3%, the viability, T/C [15] was 44.4% and the viability, T/C [16] was 31.9%. It also gave a viability, T/C (second compound 0.0949 µM, first compound 0.00316 µM) of 73.4%, a viability, T/C (second compound 0.0949 µM, first compound 0.01 µM) of 62.6% and a viability, T/C [17] of 60.8%. For the same compound, the viability, T/C [18] was 46.9%, the viability, T/C [19] was 43% and the viability, T/C [20] was 26.4%. The viability, T/C (second compound 0.3 µM, first compound 0.00316 µM) was 68%, the viability, T/C (second compound 0.3 µM, first compound 0.01 µM) was 66.2% and the viability, T/C [21] was 63.9%. The viability, T/C [22] was 51.6%, the viability, T/C [23] was 35.2% and the viability, T/C [24] was 31.5%.
With `C[C@@H](NC(=O)c1ncnc(N)c1Cl)c1ncc(C(=O)Nc2cc(C(F)(F)F)c(Cl)cn2)s1` + CCn1c(-c2cccnc2C(C)OC)c2c3cc(ccc31)N1CCOC(CC(NC(=O)C(C(C)C)N(C)C(=O)C3(F)CCN(C(=O)C#CC(C)(C)N(C)C)CC3)C(=O)N3CCCC(N3)C(=O)OCC(C)(C)C2)C1 the IC50 (second compound 0.000949 µM) was over 10000 nM, the IC50 (second compound 0.003 µM) was over 10000 nM and the IC50 (second compound 0.00949 µM) was over 10000 nM. It also gave an IC50 (second compound 0.03 µM) of over 10000 nM, an IC50 (second compound 0.0949 µM) of over 10000 nM and an IC50 (second compound 0.3 µM) of over 10000 nM. It also gave a viability, T/C [1] of 83.6%, a viability, T/C [2] of 84.5% and a viability, T/C [3] of 81.7%. The viability, T/C [4] was 79.2%, the viability, T/C (second compound 0.000949 µM, first compound 3.16 µM) was 78.3% and the viability, T/C (second compound 0.000949 µM, first compound 10 µM) was 79.2%. For the same compound, the viability, T/C [5] was 77.5%, the viability, T/C [6] was 80.8% and the viability, T/C [7] was 80.2%. It also gave a viability, T/C [8] of 75.2%, a viability, T/C (second compound 0.003 µM, first compound 3.16 µM) of 89.1% and a viability, T/C (second compound 0.003 µM, first compound 10 µM) of 82.1%. For the same compound, the viability, T/C [9] was 76.6%, the viability, T/C [10] was 88.9% and the viability, T/C [11] was 84.4%. For the same compound, the viability, T/C [12] was 80.3%, the viability, T/C (second compound 0.00949 µM, first compound 3.16 µM) was 78.6% and the viability, T/C (second compound 0.00949 µM, first compound 10 µM) was 77.5%. It also gave a viability, T/C [13] of 88.5%, a viability, T/C [14] of 83.4% and a viability, T/C [15] of 81.4%. The viability, T/C [16] was 79.7%, the viability, T/C (second compound 0.03 µM, first compound 3.16 µM) was 95.9% and the viability, T/C (second compound 0.03 µM, first compound 10 µM) was 68.2%. The viability, T/C [17] was 81.2%, the viability, T/C [18] was 86.1% and the viability, T/C [19] was 81.5%. For the same compound, the viability, T/C [20] was 79%, the viability, T/C (second compound 0.0949 µM, first compound 3.16 µM) was 88.8% and the viability, T/C (second compound 0.0949 µM, first compound 10 µM) was 75.3%. It also gave a viability, T/C [21] of 75.7%, a viability, T/C [22] of 82.7% and a viability, T/C [23] of 77.9%. The viability, T/C [24] was 75.4%, the viability, T/C (second compound 0.3 µM, first compound 3.16 µM) was 80.1% and the viability, T/C (second compound 0.3 µM, first compound 10 µM) was 76.7%.
